Data as given in US20160002204A1 (Board of Regents, The University of Texas System, priority 2014, published 2016).

How the values were obtained:
[1] = biological target: T1, GLS1 (purified recombinant human GAC) (Homo sapiens, UniProt O94925); experiment: GLS1 enzymatic activity assay (dual-coupled, Amplex UltraRed/resorufin); assay type: biochemical
T1 sequence (O94925 55-598 isoform O94925-3 limits assumed): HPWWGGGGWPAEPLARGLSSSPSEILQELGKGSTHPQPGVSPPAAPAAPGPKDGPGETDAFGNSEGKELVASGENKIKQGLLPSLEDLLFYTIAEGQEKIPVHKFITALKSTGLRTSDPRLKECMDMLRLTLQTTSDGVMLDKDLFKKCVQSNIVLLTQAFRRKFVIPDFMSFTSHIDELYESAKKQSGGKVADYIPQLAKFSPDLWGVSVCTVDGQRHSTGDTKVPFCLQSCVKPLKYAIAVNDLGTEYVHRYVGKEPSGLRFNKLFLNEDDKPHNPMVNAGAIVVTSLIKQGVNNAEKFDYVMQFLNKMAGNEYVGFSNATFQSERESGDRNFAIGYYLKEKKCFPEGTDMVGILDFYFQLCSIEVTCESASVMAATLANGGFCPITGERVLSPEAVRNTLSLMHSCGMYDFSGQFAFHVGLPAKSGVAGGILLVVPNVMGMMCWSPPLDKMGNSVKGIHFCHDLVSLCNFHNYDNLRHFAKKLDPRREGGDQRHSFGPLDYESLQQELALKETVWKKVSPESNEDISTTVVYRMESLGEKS
Procedure, shortened: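 In this coupled fluorometric format, phosphate-activated GAC (2 nM, 50 mM phosphate) is pre-exposed to compound for 10 min before 1 mM glutamine addition. Product is tracked as resorufin (530/590 nm) over time or at 20 min, and potency is derived by logistic fitting.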

A549 cells = experiment: A549 proliferation (viability) assay, Cell Titer Fluor, 72 hours; assay type: cell-based; conditions: Homo sapiens
Procedure, shortened: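 A549 cells in RPMI 1640 with 10% dialyzed FBS were seeded at 1000 cells/well, grown 24 h, then exposed to compound (0.5% DMSO final) for 72 h at 37 °C, 5% CO2. Viability was read by Cell Titer Fluor fluorescence; EC50 from four-parameter logistic fit.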

IC50 [1] [nM]	EC50 (A549 cells) [nM]	SMILES
< 100	100 to 500	O=C(Nc1ccn(CCC(F)Cn2cc(C(=O)NCc3cccc(OC(F)(F)F)c3)nn2)c(=O)n1)OC1CCC1 (centres unmarked) [Example 385, cyclobutyl N-(1-{3-fluoro-4-[4-({[3-(trifluoromethoxy)phenyl]methyl}carbamoyl)-1H-1,2,3-triazol-1-yl]butyl}-2-oxo-1,2-dihydro-pyrimidin-4-yl)carbamate]
< 100	100 to 500	O=C(CC1CCCC1)Nc1cnn(CCC(F)Cn2cc(C(=O)NCc3cccc(OC(F)(F)F)c3)nn2)c(=O)c1 (centres unmarked) [Example 386, 1-(4-(4-(2-cyclopentylacetamido)-6-oxopyridazin-1(6H)-yl)-2-fluorobutyl)-N-(3-(trifluoromethoxy)benzyl)-1H-1,2,3-triazole-4-carboxamide]
< 100	< 100	O=C(CC1CCCC1)Nc1ccn(CCC(F)Cn2cc(C(=O)NCc3ncccc3F)nn2)c(=O)c1F (centres unmarked) [Example 387, 1-{4-[4-(2-cyclopentylacetamido)-3-fluoro-2-oxo-1,2-dihydropyridin-1-yl]-2-fluorobutyl}-N-[(3-fluoropyridin-2-yl)methyl]-1H-1,2,3-triazole-4-carboxamide]
< 100	< 100	O=C(CC1CCCC1)Nc1ccn(CCC(F)Cn2cc(C(=O)NCc3ccc(CF)nc3)nn2)c(=O)c1F (centres unmarked) [Example 388, 1-{4-[4-(2-cyclopentylacetamido)-3-fluoro-2-oxo-1,2-dihydropyridin-1-yl]-2-fluorobutyl}-N-{[6-(fluoromethyl)pyridin-3-yl]methyl}-1H-1,2,3-triazole-4-carboxamide]
< 100	< 100	O=C(CC1CCC1)Nc1ccn(CCC(F)Cn2cc(C(=O)NCc3ccc(OC(F)(F)F)cn3)nn2)c(=O)c1F (centres unmarked) [Example 389, 1-{4-[4-(2-cyclobutylacetamido)-3-fluoro-2-oxo-1,2-dihydropyridin-1-yl]-2-fluorobutyl}-N-{[5-(trifluoromethoxy)pyridin-2-yl]methyl}-1H-1,2,3-triazole-4-carboxamide]
100 to 500	< 100	O=C(CC1CCC1)Nc1ccn(CCC(F)Cn2cc(C(=O)NCc3ccc(C(F)(F)F)cn3)nn2)c(=O)c1F (centres unmarked) [Example 390, 1-{4-[4-(2-cyclobutylacetamido)-3-fluoro-2-oxo-1,2-dihydropyridin-1-yl]-2-fluorobutyl}-N-{[5-(trifluoromethyl)pyridin-2-yl]methyl}-1H-1,2,3-triazole-4-carboxamide]
500 to 5000	> 5000	NC(=O)c1cn(CC(F)CCn2ccc(NC(=O)CC3CCC3)c(F)c2=O)nn1 (centres unmarked) [Example 391, 1-{4-[4-(2-cyclobutylacetamido)-3-fluoro-2-oxo-1,2-dihydropyridin-1-yl]-2-fluorobutyl}-1H-1,2,3-triazole-4-carboxamide]
< 100	< 100	O=C(Cc1ccccc1)Nc1ccn(CCC(F)Cn2cc(C(=O)NCc3cc(Cl)ccc3F)nn2)c(=O)c1F (centres unmarked) [Example 392, N-[(5-chloro-2-fluorophenyl)methyl]-1-{2-fluoro-4-[3-fluoro-2-oxo-4-(2-phenylacetamido)-1,2-dihydropyridin-1-yl]butyl}-1H-1,2,3-triazole-4-carboxamide]
< 100	< 100	O=C(CC1CCCC1)Nc1ccn(CCC(F)Cn2cc(C(=O)NCc3ccccn3)nn2)c(=O)c1F (centres unmarked) [Example 393, 1-{4-[4-(2-cyclopentylacetamido)-3-fluoro-2-oxo-1,2-dihydropyridin-1-yl]-2-fluorobutyl}-N-(pyridin-2-ylmethyl)-1H-1,2,3-triazole-4-carboxamide]
< 100	< 100	O=C(CC1CCCC1)Nc1ccn(CCC(F)Cn2cc(C(=O)NCc3ccc(C(F)(F)F)cn3)nn2)c(=O)c1F (centres unmarked) [Example 394, 1-{4-[4-(2-cyclopentylacetamido)-3-fluoro-2-oxo-1,2-dihydropyridin-1-yl]-2-fluorobutyl}-N-{[5-(trifluoromethyl)pyridin-2-yl]methyl}-1H-1,2,3-triazole-4-carboxamide]
< 100	< 100	O=C(CC1CCCC1)Nc1ccn(CCC(F)Cn2cc(C(=O)NCc3cc(Cl)ccc3F)nn2)c(=O)c1F (centres unmarked) [Example 395, N-[(5-chloro-2-fluorophenyl)methyl]-1-{4-[4-(2-cyclopentylacetamido)-3-fluoro-2-oxo-1,2-dihydropyridin-1-yl]-2-fluorobutyl}-1H-1,2,3-triazole-4-carboxamide]
100 to 500	< 100	Cc1ccc(CNC(=O)c2cn(CC(F)CCn3ccc(NC(=O)OC4CCC4)c(F)c3=O)nn2)cn1 (centres unmarked) [Example 396, cyclobutyl N-{3-fluoro-1-[3-fluoro-4-(4-{[(6-methylpyridin-3-yl)methyl]carbamoyl}-1H-1,2,3-triazol-1-yl)butyl]-2-oxo-1,2-dihydropyridin-4-yl}carbamate]
100 to 500	100 to 500	O=C(Nc1ccn(CCC(F)Cn2cc(C(=O)NCc3cccc(C(F)(F)F)n3)nn2)c(=O)c1F)OC1CCC1 (centres unmarked) [Example 397, cyclobutyl N-(3-fluoro-1-{3-fluoro-4-[4-({[6-(trifluoromethyl)pyridin-2-yl]methyl}carbamoyl)-1H-1,2,3-triazol-1-yl]butyl}-2-oxo-1,2-dihydropyridin-4-yl)carbamate]
< 100	< 100	O=C(Nc1ccn(CCC(F)Cn2cc(C(=O)NCc3cncc(C(F)(F)F)c3)nn2)c(=O)c1F)OC1CCC1 (centres unmarked) [Example 398, cyclobutyl N-(3-fluoro-1-{3-fluoro-4-[4-({[5-(trifluoromethyl)pyridin-3-yl]methyl}carbamoyl)-1H-1,2,3-triazol-1-yl]butyl}-2-oxo-1,2-dihydropyridin-4-yl)carbamate]
100 to 500	100 to 500	O=C(Nc1ccn(CCC(F)Cn2cc(C(=O)NCc3ccc(C(F)(F)F)nc3)nn2)c(=O)c1F)OC1CCC1 (centres unmarked) [Example 399, cyclobutyl N-(3-fluoro-1-{3-fluoro-4-[4-({[6-(trifluoromethyl)pyridin-3-yl]methyl}carbamoyl)-1H-1,2,3-triazol-1-yl]butyl}-2-oxo-1,2-dihydropyridin-4-yl)carbamate]
< 100	< 100	O=C(CC1CCCC1)Nc1ccn(CCC(F)Cn2cc(C(=O)NCc3ccc(OC(F)(F)F)cn3)nn2)c(=O)c1F (centres unmarked) [Example 400, 1-{4-[4-(2-cyclopentylacetamido)-3-fluoro-2-oxo-1,2-dihydropyridin-1-yl]-2-fluorobutyl}-N-{[5-(trifluoromethoxy)pyridin-2-yl]methyl}-1H-1,2,3-triazole-4-carboxamide]
< 100	100 to 500	O=C(CC1CCC1)Nc1cnn(CCC(F)Cn2cc(C(=O)NCc3cc(C(F)(F)F)ccn3)nn2)c(=O)c1 (centres unmarked) [Example 401, 1-{4-[4-(2-cyclobutylacetamido)-6-oxo-1,6-dihydropyridazin-1-yl]-2-fluorobutyl}-N-{[4-(trifluoromethyl)pyridin-2-yl]methyl}-1H-1,2,3-triazole-4-carboxamide]
100 to 500	500 to 5000	Cc1ccc(CNC(=O)c2cn(CC(F)CCn3ncc(NC(=O)CC4CCC4)cc3=O)nn2)cn1 (centres unmarked) [Example 402, 1-{4-[4-(2-cyclobutylacetamido)-6-oxo-1,6-dihydropyridazin-1-yl]-2-fluorobutyl}-N-[(6-methylpyridin-3-yl)methyl]-1H-1,2,3-triazole-4-carboxamide]
100 to 500	500 to 5000	CNC(=O)c1cn(CC(F)CCn2ccc(NC(=O)CN3CCN(C(=O)OC(C)(C)C)CC3)cc2=O)nn1 (centres unmarked) [Example 403, tert-butyl 4-{[(1-{3-fluoro-4-[4-(methylcarbamoyl)-1H-1,2,3-triazol-1-yl]butyl}-2-oxo-1,2-dihydropyridin-4-yl)carbamoyl]methyl}piperazine-1-carboxylate]
100 to 500	500 to 5000	CC(C)CNC(=O)c1cn(CC(F)CCn2ccc(NC(=O)CN3CCN(C(=O)OC(C)(C)C)CC3)cc2=O)nn1 (centres unmarked) [Example 404, tert-butyl 4-({[1-(3-fluoro-4-{4-[(2-methylpropyl)carbamoyl]-lH-1,2,3-triazol-1-yl}butyl)-2-oxo-1,2-dihydropyridin-4-yl]carbamoyl}methyl)piperazine-1-carboxylate]
100 to 500	100 to 500	CC(C)(C)OC(=O)N1CCN(CC(=O)Nc2ccn(CCC(F)Cn3cc(C(=O)NCC4CCCC4)nn3)c(=O)c2)CC1 (centres unmarked) [Example 405, tert-butyl 4-({[1-(4-{4-[(cyclopentylmethyl)carbamoyl]-1H-1,2,3-triazol-1-yl}-3-fluorobutyl)-2-oxo-1,2-dihydropyridin-4-yl]carbamoyl}methyl)piperazine-1-carboxylate]
500 to 5000	> 5000	CC(C)(CO)CNC(=O)c1cn(CC(F)CCn2ccc(NC(=O)CN3CCN(C(=O)OC(C)(C)C)CC3)cc2=O)nn1 (centres unmarked) [Example 406, tert-butyl 4-({[1-(3-fluoro-4-{4-[(3-hydroxy-2,2-dimethylpropyl)carbamoyl]-1H-1,2,3-triazol-1-yl}butyl)-2-oxo-1,2-dihydropyridin-4-yl]carbamoyl}methyl)piperazine-1-carboxylate]
